Test results: US20090131354A1, “miR-126 REGULATED GENES AND PATHWAYS AS TARGETS FOR THERAPEUTIC INTERVENTION” (priority 2007, published 2009)

Columns and labels:
[1] = tested on: H522 lung cancer cells; assay: Alamar Blue proliferation assay, H522; type: cell-based, human; settings: relative to NC miRNA (100%)
Text: (§1) The inventors assessed the therapeutic effect of hsa-miR-126 for lung cancer by using 11 individual lung cancer cell lines. To measure cellular proliferation of lung cancer cells, the following non-small cell lung cancer (NSCLC) cells were used: cells derived from lung adenocarcinoma (A549, H1299, H522, H838, Calu-3, HCC827, HCC2935), cells derived from lung squamous cell carcinoma (H520, H226), cells derived from lung bronchioalveolar carcinoma (H1650), and cells derived from lung large cell carcinoma (H460). Synthetic hsa-miR-126 (Pre-miR™-hsa-miR-126, Ambion cat. no. AM17100) or negative control (NC) miRNA (Pre-miR™ microRNA Precursor Molecule-Negative Control #2; Ambion cat. no. AM17111) was delivered via lipid-based transfection into A549, H1299, H522, H838, Calu-3, HCC827, HCC2935, H520, H1650, and H460 cells, and via electroporation into H226 cells.
Lipid-based reverse transfections were carried out in triplicate according to a published protocol (Ovcharenko et al., 2005) and the following parameters: Cells (5,000-12,000 per 96 well), 0.1-0.2 μl Lipofectamine™ 2000 (cat. no. 11668-019, Invitrogen Corp., Carlsbad, Calif., USA) in 20 μl OptiMEM (Invitrogen), 30 nM final concentration of miRNA in 100 μl. Electroporation of H226 cells was carried out using the BioRad Gene Pulser Xcell™ instrument (BioRad Laboratories Inc., Hercules, Calif., USA) with the following settings: 5×10^6 cells with 5 μg miRNA in 200 μl OptiMEM (1.6 μM miRNA), square wave pulse at 250 V for 5 ms. Electroporated H226 cells were seeded at 7,000 cells per 96-well in a total volume of 100 μl. All cells except for Calu-3 cells were harvested 72 hours post transfection or electroporation for assessment of cellular proliferation. Calu-3 cells were harvested 10 days post transfection. Proliferation assays were performed using Alamar Blue (Invitrogen) following the manufacturer's instructions. As a control for inhibition of cellular proliferation, siRNA against the motor protein kinesin 11, also known as Eg5, was used. […]

[2] = tested on: lung cancer cells A549, H1299, H522, H838, Calu-3, HCC827, HCC2935, H520, H1650, H460, H226; assay: Alamar Blue proliferation assay, all lung cancer cell lines tested; type: cell-based, human; settings: 30 nM
Text: as §1
Lipid-based reverse transfections were carried out in triplicate according to a published protocol (Ovcharenko et al., 2005) and the following parameters: Cells (5,000-12,000 per 96 well), 0.1-0.2 μl Lipofectamine™ 2000 (cat. no. 11668-019, Invitrogen Corp., Carlsbad, Calif., USA) in 20 μl OptiMEM (Invitrogen), 30 nM final concentration of miRNA in 100 μl. […]

[3] = tested on: LNCaP prostate cancer cells; assay: Alamar Blue proliferation assay, LNCaP; type: cell-based, human; settings: 30 nM, normalized to negative control miRNA (100% proliferation)
Text: The inventors assessed the therapeutic effect of hsa-miR-126 for prostate cancer by using 4 individual human prostate cancer cell lines. To measure cellular proliferation of prostate cancer cells, the following prostate cancer cell lines were used: PPC-1, derived from a bone metastasis; Du145, derived from a brain metastasis; RWPE2, derived from prostate cells immortalized by human papillomavirus 18 and transformed by the K-RAS oncogene; and LNCaP, derived from a lymph node metastasis (Stone et al., 1978; Horoszewicz et al., 1980; Brothman et al., 1991; Pretlow et al., 1993; Bello et al., 1997). PPC-1 and Du145 cells lack expression of the prostate-specific antigen (PSA) and are independent of androgen receptor (AR) signaling. In contrast, RWPE2 and LNCaP cells test positive for PSA and AR. Cells were transfected with synthetic hsa-miR-126 (Pre-miR™-hsa-miR-126, Ambion cat. no. AM 17100) or negative control miRNA (NC; Pre-miR™ microRNA Precursor Molecule-Negative Control #2; Ambion cat. no. AM17111) in a 96-well format using a lipid-based transfection reagent. […] Proliferation was assessed 4-7 days post-transfection using Alamar Blue™ (Invitrogen) following the manufacturer's instructions. […] Fluorescent light units (FLU) were measured after 3 hours, normalized to the control, and plotted as percent change in proliferation. […]

[4] = tested on: A549 cells; assay: Ingenuity Pathways Analysis of affected cellular pathways; set-up: species or system human
Experimental: The mis-regulation of gene expression by hsa-miR-126 (Table 1) affects many cellular pathways that represent potential therapeutic targets for the control of cancer and other diseases and disorders. The inventors determined the identity and nature of the cellular genetic pathways affected by the regulatory cascade induced by hsa-miR-126 expression. Cellular pathway analyses were performed using Ingenuity Pathways Analysis (Version 4.0, Ingenuity® Systems, Redwood City, Calif.). Alteration of a given pathway was determined by Fisher's Exact test (Fisher, 1922).

COc1cc([C@@H]2c3cc4c(cc3[C@@H](O[C@@H]3O[C@@H]5CO[C@@H](C)O[C@H]5[C@H](O)[C@H]3O)[C@H]3COC(=O)[C@H]23)OCO4)cc(OC)c1O [etoposide]
% proliferation ([1]; H522, 10 μM): 82.13%
% proliferation ([1]; H522, 50 μM): 61.08%

hsa-miR-126 (UCGUACCGUGAGUAAUAAUGC; synthetic pre-miR form, further chemistry not given here) [Synthetic hsa-miR-126 (Pre-miR™-hsa-miR-126, Ambion cat. no. AM17100)]
average inhibition of cellular proliferation ([2]; average of 11 lung cancer cell lines): 25.33%
growth-inhibitory activity compared with etoposide ([2]; lung cancer cell lines): comparable to that of etoposide at concentrations >10 μM
% proliferation [3]: 80.59%
Number of Genes ([4]; pathway: Cancer, Cellular Movement, Tumor Morphology): 23
Number of Genes ([4]; pathway: Carbohydrate Metabolism, Connective Tissue Disorders, Inflammatory Disease): 15
Number of Genes ([4]; pathway: Cell Cycle, Connective Tissue Development and Function, Immune Response): 1
Number of Genes ([4]; pathway: Cell Cycle, Lipid Metabolism, Molecular Transport): 15
Number of Genes ([4]; pathway: Cell Death, Cell-To-Cell Signaling and Interaction, Cellular Assembly and Organization): 1
Number of Genes ([4]; pathway: Cell Morphology, Cellular Assembly and Organization, Cellular Development): 15
Number of Genes ([4]; pathway: Cell Signaling, Molecular Transport, Neurological Disease): 1
Number of Genes ([4]; pathway: Cell-To-Cell Signaling and Interaction, Immune Response, Immune and Lymphatic System Development and Function): 13
Number of Genes ([4]; pathway: Cellular Assembly and Organization, Cancer, Skeletal and Muscular Disorders): 16
Number of Genes ([4]; pathway: Cellular Function and Maintenance, Cellular Assembly and Organization, Cell Cycle): 11
Number of Genes ([4]; pathway: Cellular Growth and Proliferation, Skeletal and Muscular System Development and Function, Cancer): 16
Number of Genes ([4]; pathway: Cellular Movement, Cellular Assembly and Organization, Drug Metabolism): 16
Number of Genes ([4]; pathway: Developmental Disorder, Endocrine System Disorders, Lipid Metabolism): 1
Number of Genes ([4]; pathway: Immune Response, Cellular Assembly and Organization, Gene Expression): 1
Number of Genes ([4]; pathway: Molecular Transport, Protein Trafficking, Cell-To-Cell Signaling and Interaction): 1
% proliferation ([1]; H522, 30 nM, 72 h): 74.62%
